# Columns and labels:
# [1] = pH 1.2
# [2] = cited from earlier work
structure (smiles),measurement,setting,value
CC(=O)/N=c1/sc(S(N)(=O)=O)nn1C [methazolamide],degradation in gastric fluid,[1],degradation
same,solubility in gastric fluid,[1],poor solubility
same,solubility,[2]; pH 7.2 phosphate buffer,3400 µg/mL
same,aqueous solubility,"[2]; water, 25° C.",1500 µg/mL

# — patent publication US5776489A, “Controlled release carbonic anhydrase inhibitor containing pharmaceutical compositions from spherical granules in capsule oral dosage unit form” (priority 1992, dated 1998)
